Data as given in article PMC6151511, “Rational Design of Nucleoside–Bile Acid Conjugates Incorporating a Triazole Moiety for Anticancer Evaluation and SAR Exploration” (Molecules : A Journal of Synthetic Chemistry and Natural …, 2017).
Where “and” joins values, the source holds several entries; their conditions need not be identical. Equal entries are not always repeated. Where two headings read alike, the source gives them in different places.

Tests used:
Type in all cases: cell-based
[1] = tested on: HCT116 colon carcinoma; assay: MTT assay, cell growth inhibition of HCT116 colon carcinoma; settings: for cytotoxicity against HCT116 (in words): 10, 25 and 50 μM, 72 h; for IC50: MTT, 72 h incubation, mean of three independent experiments ± SD, IC50 > 50 means inhibition <20% at 50 μM
Method: (§1) All conjugated compounds prepared via click chemistry and listed in Table 1 were evaluated in vitro for their cytotoxic activity against K562 leukemia cells and the colon cancer cell line HCT116. Normal human skin fibroblast cells were chosen as a control and cisplatin served as a reference compound. The cytotoxicity was evaluated using the MTT assay (details are reported in the Materials and Methods section). In all experiments the cell growth inhibition of K562 and HCT116 was determined for each compound at concentrations of 10, 25 and 50 μM after 72 h of treatment and up to 100 μM in the case of fibroblasts.
(§2) Cell growth inhibition assays were carried out using the leukemia cell line K562 and colon carcinoma HCT116. Cell lines were obtained from ATCC (Manassas, VA, USA) and maintained in RPMI 1640, supplemented with 10% fetal bovine serum (FBS), penicillin (100 Units mL^−1), streptomycin (100 μg mL^−1) and glutamine (2 mM) (complete medium); the pH of the medium was 7.2 and the incubation was performed at 37 °C in a 5% CO2 atmosphere. Adherent cells were routinely used at 70% of confluence and passaged every 3 days by treatment with 0.05% Trypsin-EDTA (Lonza, Walkersville, MD, USA). K562 cells were routinely fed every 3 days.
(§3) The antiproliferative activity of the compounds was tested using the 3-(4,5-dimethylthiozol-2-yl)2,5-diphenyltetrazolium bromide solution (MTT) assay. K562 and HCT116 were seeded in triplicate in 96-well trays respectively at the density of 5 × 10^3 and 10^4 in 50 μL of complete medium. Stock solutions (50 mM) of each compound were made in DMSO and diluted in complete medium to give final concentrations of 50, 25 and 10 μM. Untreated cells were placed in every plate as a negative control. The cells were exposed to the compounds, in 100 μL total volume, for 72 h.

[2] = tested on: K562 leukemia cells; assay: MTT assay, cell growth inhibition of K562 leukemia cells; settings: for cytotoxicity against K562 (in words): 10, 25 and 50 μM
Method: as §1, §2, §3

[3] = tested on: Normal human skin fibroblast cells; assay: MTT assay, cytotoxicity on normal fibroblasts (control); settings: up to 100 μM; for IC50: MTT, 72 h incubation, mean of three independent experiments ± SD, IC50 > 100 means inhibition <10% at 100 μM, read-out: IC50 FIBRO
Method: as §1, §3

[4] = Homo sapiens, K562, 72 h, MTT, 72 h incubation, mean of three independent experiments ± SD, IC50 > 50 means inhibition <20% at 50 μM, read-out: IC50 K562
[5] = Homo sapiens, Skin fibroblast, 72 h
[6] = MTT, 72 h incubation, mean of three independent experiments ± SD, IC50 > 50 means inhibition <20% at 50 μM, read-out: IC50 K562

SMILES	IC50 ([1]; Homo sapiens, HCT-116, 72 h)	IC50 [2, 4]	IC50 [3, 5]	other results
COC(=O)CC[C@@H](C)[C@H]1CC[C@H]2[C@@H]3[C@H](O)C[C@@H]4C[C@H](N=[N+]=[N-])CC[C@]4(C)[C@H]3CC[C@]12C [3α-N3-CDC, methyl 3α-azido-7α-hydroxy-5β-cholan-24-oate]	31 ± 2.3 µM	23 ± 2 µM	> 100 µM	cytotoxicity against HCT116 (in words) [1]: active; cytotoxicity against K562 (in words) ([2]; 72 h): active; cytotoxicity towards fibroblast cells (in words) ([3]; 72 h): not active
CC(CCC(=O)NCCS(=O)(=O)O)[C@H]1CCC2C3C(CC[C@@]21C)[C@@]1(C)CC[C@@H](N=[N+]=[N-])CC1C[C@@H]3O (stereo partly drawn) [3α-N3-TUDCA, (3α-Azido-7β-hydroxy-5β-cholan-24-oyl)-2-aminoethanesulfonic Acid]	> 50 µM	> 50 µM	> 100 µM	cytotoxicity against HCT116 (in words) [1]: not be cytotoxic; cytotoxicity against K562 (in words) ([2]; 72 h): not be cytotoxic; cytotoxicity towards fibroblast cells (in words) ([3]; 72 h): not be cytotoxic
COC(=O)CC[C@@H](C)[C@H]1CC[C@H]2[C@@H]3[C@@H](O)C[C@@H]4C[C@H](N=[N+]=[N-])CC[C@]4(C)[C@H]3CC[C@]12C [3α-N3-UDC, methyl 3α-azido-7β-hydroxy-5β-cholan-24-oate]	22 ± 1.5 µM	25 ± 1 µM	> 100 µM	cytotoxicity against HCT116 (in words) [1]: active; cytotoxicity against K562 (in words) ([2]; 72 h): active; cytotoxicity towards fibroblast cells (in words) ([3]; 72 h): not active
CC(CCN=[N+]=[N-])[C@H]1CCC2C3C(CC[C@@]21C)[C@@]1(C)CC[C@@H](O)CC1C[C@H]3O (stereo partly drawn) [23-N3-nor-CDC, 3α,7α-Dihydroxy-5β-23-azido-24-norcholane]	25 ± 2 µM	21 ± 1.2 µM	79 ± 3.1 µM	–
CC(CCN=[N+]=[N-])[C@H]1CCC2C3C(CC[C@@]21C)[C@@]1(C)CC[C@@H](O)CC1C[C@@H]3O (stereo partly drawn) [23-N3-nor-UDC, 3α,7β-Dihydroxy-5β-23-azido-24-norcholane]	22 ± 1.4 µM	15 ± 1 µM	81 ± 2 µM	–
COC(=O)CCC(C)C1CCC2C3C(O)CC4CC(n5cc(CCCCC#Cc6nc7c(N)ncnc7n6C6OC(CO)C(O)C6O)nn5)CCC4(C)C3CCC12C (stereo not shown) [A-CDC]	–	43.5 ± 1.3 µM	> 100 µM	IC50 [1]: ≤ 25 µM and 23.1 µM
CC(CCC(=O)NCCS(=O)(=O)O)C1CCC2C3C(O)CC4CC(n5cc(CCCCC#Cc6nc7c(N)ncnc7n6C6OC(CO)C(O)C6O)nn5)CCC4(C)C3CCC12C (stereo not shown) [A-TUDCA]	> 50 µM	> 50 µM	> 100 µM	–
COC(=O)CCC(C)C1CCC2C3C(O)CC4CC(n5cc(CCCCC#Cc6nc7c(N)ncnc7n6C6OC(CO)C(O)C6O)nn5)CCC4(C)C3CCC12C (stereo not shown) [A-UDC]	–	–	–	IC50 [1]: > 50 µM; IC50 [2, 6]: > 50 µM; IC50 [3]: > 100 µM
CC(CCn1cc(CCCCC#Cc2nc3c(N)ncnc3n2C2OC(CO)C(O)C2O)nn1)C1CCC2C3C(O)CC4CC(O)CCC4(C)C3CCC12C (stereo not shown) [A-nor-CDC]	44.1 ± 2.5 µM	–	> 100 µM	IC50 [2, 6]: ≤ 25 µM and 23.6 µM
CC(CCn1cc(CCCCC#Cc2nc3c(N)ncnc3n2C2OC(CO)C(O)C2O)nn1)C1CCC2C3C(O)CC4CC(O)CCC4(C)C3CCC12C (stereo not shown) [A-nor-UDC]	–	–	–	IC50 [1]: > 50 µM; IC50 [2, 6]: > 50 µM; IC50 [3]: > 100 µM
C#CCCCCC#Cc1nc2c(N)ncnc2n1[C@@H]1O[C@H](CO)[C@@H](O)[C@H]1O [ALK-A, 8-(1,7-Octadynyl)-adenosine]	> 50 µM	> 50 µM	> 100 µM	–
C#CCCCCC#Cc1nc2c(=O)[nH]c(N)nc2n1[C@@H]1O[C@H](CO)[C@@H](O)[C@H]1O [ALK-G, 8-(1,7-Octadynyl)-guanosine]	> 50 µM	> 50 µM	> 100 µM	–
C#CCCCCC#Cc1nc2c(=O)[nH]c(N)nc2n1[C@H]1C[C@H](O)[C@@H](CO)O1 [ALK-dG, 8-(1,7-Octadynyl)-2′-deoxyguanosine]	> 50 µM	> 50 µM	> 100 µM	–
N.N.[Cl][Pt][Cl] [CISPLATIN, cisplatin, reference compound]	–	–	–	IC50 [1]: 8.5 ± 1.2 µM; IC50 [2, 6]: 5.4 ± 1 µM; IC50 [3]: 23.6 ± 3.5 µM
COC(=O)CCC(C)[C@H]1CCC2C3C(CC[C@@]21C)[C@@]1(C)CC[C@@H](n2cc(CCCCC#Cc4nc5c(=O)[nH]c(N)nc5n4[C@@H]4O[C@H](CO)[C@@H](O)[C@H]4O)nn2)CC1C[C@H]3O (stereo partly shown) [G-CDC]	≤ 25 µM	> 50 µM	> 100 µM	IC50 [1]: 25.3 ± 3.8 µM
CC(CCC(=O)NCCS(=O)(=O)O)[C@H]1CCC2C3C(CC[C@@]21C)[C@@]1(C)CC[C@@H](n2cc(CCCCC#Cc4nc5c(=O)[nH]c(N)nc5n4[C@@H]4O[C@H](CO)[C@@H](O)[C@H]4O)nn2)CC1C[C@@H]3O (stereo partly shown) [G-TUDCA]	> 50 µM	> 50 µM	> 100 µM	–
COC(=O)CCC(C)[C@H]1CCC2C3C(CC[C@@]21C)[C@@]1(C)CC[C@@H](n2cc(CCCCC#Cc4nc5c(=O)[nH]c(N)nc5n4[C@@H]4O[C@H](CO)[C@@H](O)[C@H]4O)nn2)CC1C[C@@H]3O (stereo partly shown) [G-UDC]	> 50 µM	> 50 µM	> 100 µM	–
CC(CCn1cc(CCCCC#Cc2nc3c(=O)[nH]c(N)nc3n2[C@@H]2O[C@H](CO)[C@@H](O)[C@H]2O)nn1)[C@H]1CCC2C3C(CC[C@@]21C)[C@@]1(C)CC[C@@H](O)CC1C[C@H]3O (stereo partly shown) [G-nor-CDC]	> 50 µM	> 50 µM	> 100 µM	–
CC(CCn1cc(CCCCC#Cc2nc3c(=O)[nH]c(N)nc3n2[C@@H]2O[C@H](CO)[C@@H](O)[C@H]2O)nn1)[C@H]1CCC2C3C(CC[C@@]21C)[C@@]1(C)CC[C@@H](O)CC1C[C@@H]3O (stereo partly shown) [G-nor-UDC]	> 50 µM	> 50 µM	> 100 µM	–
CC(CCC(=O)NCCS(=O)(=O)O)[C@H]1CCC2C3C(CC[C@@]21C)[C@@]1(C)CC[C@@H](n2cc(CCCCC#Cc4nc5c(N)ncnc5n4[C@H]4C[C@H](O)[C@@H](CO)O4)nn2)CC1C[C@@H]3O (stereo partly shown) [dA-TUDCA]	> 50 µM	> 50 µM	> 100 µM	–
CC(CCn1cc(CCCCC#Cc2nc3c(N)ncnc3n2[C@H]2C[C@H](O)[C@@H](CO)O2)nn1)[C@H]1CCC2C3C(CC[C@@]21C)[C@@]1(C)CC[C@@H](O)CC1C[C@@H]3O (stereo partly shown) [dA-nor-UDC]	44.8 ± 3.5 µM	> 50 µM	> 100 µM	IC50 ([2]; Homo sapiens, K562, 72 h, extrapolated beyond the highest tested concentration of 50 μM, 72 h, read-out: IC50 K562, extrapolated value): 87.1 µM
COC(=O)CCC(C)[C@H]1CCC2C3C(CC[C@@]21C)[C@@]1(C)CC[C@@H](n2cc(CCCCC#Cc4nc5c(=O)[nH]c(N)nc5n4[C@H]4C[C@H](O)[C@@H](CO)O4)nn2)CC1C[C@H]3O (stereo partly shown) [dG-CDC]	> 50 µM	> 50 µM	> 100 µM	–
CC(CCC(=O)NCCS(=O)(=O)O)[C@H]1CCC2C3C(CC[C@@]21C)[C@@]1(C)CC[C@@H](n2cc(CCCCC#Cc4nc5c(=O)[nH]c(N)nc5n4[C@H]4C[C@H](O)[C@@H](CO)O4)nn2)CC1C[C@@H]3O (stereo partly shown) [dG-TUDCA]	> 50 µM	> 50 µM	> 100 µM	–
COC(=O)CCC(C)[C@H]1CCC2C3C(CC[C@@]21C)[C@@]1(C)CC[C@@H](n2cc(CCCCC#Cc4nc5c(=O)[nH]c(N)nc5n4[C@H]4C[C@H](O)[C@@H](CO)O4)nn2)CC1C[C@@H]3O (stereo partly shown) [dG-UDC]	> 50 µM	> 50 µM	> 100 µM	–
CC(CCn1cc(CCCCC#Cc2nc3c(=O)[nH]c(N)nc3n2[C@H]2C[C@H](O)[C@@H](CO)O2)nn1)[C@H]1CCC2C3C(CC[C@@]21C)[C@@]1(C)CC[C@@H](O)CC1C[C@H]3O (stereo partly shown) [dG-nor-CDC]	> 50 µM	> 50 µM	> 100 µM	–
CC(CCn1cc(CCCCC#Cc2nc3c(=O)[nH]c(N)nc3n2[C@H]2C[C@H](O)[C@@H](CO)O2)nn1)[C@H]1CCC2C3C(CC[C@@]21C)[C@@]1(C)CC[C@@H](O)CC1C[C@@H]3O (stereo partly shown) [dG-nor-UDC]	> 50 µM	> 50 µM	> 100 µM	–
COC(=O)CCC(C)[C@H]1CCC2C3C(CC[C@@]21C)[C@@]1(C)CC[C@@H](n2cc(CCCCC#Cc4cn([C@H]5C[C@H](O)[C@@H](CO)O5)c(=O)[nH]c4=O)nn2)CC1C[C@H]3O (stereo partly shown) [dU-CDC]	> 50 µM	> 50 µM	> 100 µM	–
CC(CCC(=O)NCCS(=O)(=O)O)[C@H]1CCC2C3C(CC[C@@]21C)[C@@]1(C)CC[C@@H](n2cc(CCCCC#Cc4cn([C@H]5C[C@H](O)[C@@H](CO)O5)c(=O)[nH]c4=O)nn2)CC1C[C@@H]3O (stereo partly shown) [dU-TUDCA]	> 50 µM	–	> 100 µM	–
